pEC50, pIC50, pKi: −log10 of the molar value.
Legend:
Mcl-1 [1] = biological target: T1, Mcl-1 (Homo sapiens, UniProt Q07820); assay: fluorescence polarizing binding assay, binding to Mcl-1; details: for pIC50: fluorescence polarizing binding assay; for fold decrease of binding affinity to Mcl-1: in comparison with UMI-1033; for binding / inhibition of Mcl-1 compared with UMI-1033, in words: 4-methyl-1-piperazinyl group of UMI-1033 replaced
Procedure: FIGS. 1, 2, 3, and 4 show various compounds for Formula I having various R1, R2, R3, R4, R5, R6, R7 and R8 groups, and related structure activity relationship (SAR) for each respective compound (IC50 values were determined with fluorescence polarizing binding assay).

A1 = biological target: T2, A1 (Homo sapiens, UniProt Q16548); assay: Binding affinity against Bcl-2 family anti-apoptotic proteins: A1
T2 sequence (Q16548 1-175): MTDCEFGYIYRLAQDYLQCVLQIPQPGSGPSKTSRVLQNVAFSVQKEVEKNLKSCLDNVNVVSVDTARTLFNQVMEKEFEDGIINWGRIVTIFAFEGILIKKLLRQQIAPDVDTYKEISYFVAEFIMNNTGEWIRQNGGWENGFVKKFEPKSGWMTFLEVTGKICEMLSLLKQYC

[2] = biological target: T3, cellular, endogenous Mcl-1 protein (Homo sapiens, UniProt Q07820); assay: Pull-down assay with biotin-labeled Noxa BH3 peptide (BL-Noxa) in 2LMP cell lysate; type: binding
T3 construct: endogenous in cells; host or cells: 2LMP cancer cell line (lysate)
T3 sequence (Q07820 whole entry): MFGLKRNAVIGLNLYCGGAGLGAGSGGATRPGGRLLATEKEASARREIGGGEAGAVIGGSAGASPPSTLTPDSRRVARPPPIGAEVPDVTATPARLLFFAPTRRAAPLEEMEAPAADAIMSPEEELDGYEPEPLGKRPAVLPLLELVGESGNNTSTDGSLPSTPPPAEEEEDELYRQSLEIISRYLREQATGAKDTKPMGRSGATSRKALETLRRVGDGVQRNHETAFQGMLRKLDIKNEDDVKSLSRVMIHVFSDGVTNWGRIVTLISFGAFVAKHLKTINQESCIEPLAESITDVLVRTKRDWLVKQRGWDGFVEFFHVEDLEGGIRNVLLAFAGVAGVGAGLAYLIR

Bcl-w = biological target: T4, Bcl-w (Homo sapiens, UniProt Q92843); assay: Binding affinity against Bcl-2 family anti-apoptotic proteins: Bcl-w
T4 sequence (Q92843 1-193): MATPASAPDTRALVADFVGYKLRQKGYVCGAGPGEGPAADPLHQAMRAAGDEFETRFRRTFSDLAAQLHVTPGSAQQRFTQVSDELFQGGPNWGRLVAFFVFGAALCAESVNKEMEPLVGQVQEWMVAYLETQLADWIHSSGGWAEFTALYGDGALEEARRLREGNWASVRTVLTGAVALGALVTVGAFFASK

Bcl-2 = Bcl-2 (Homo sapiens, UniProt P10415); assay: Binding affinity against Bcl-2 family anti-apoptotic proteins: Bcl-2
Bcl-2, sequence (P10415 whole entry, species assumed): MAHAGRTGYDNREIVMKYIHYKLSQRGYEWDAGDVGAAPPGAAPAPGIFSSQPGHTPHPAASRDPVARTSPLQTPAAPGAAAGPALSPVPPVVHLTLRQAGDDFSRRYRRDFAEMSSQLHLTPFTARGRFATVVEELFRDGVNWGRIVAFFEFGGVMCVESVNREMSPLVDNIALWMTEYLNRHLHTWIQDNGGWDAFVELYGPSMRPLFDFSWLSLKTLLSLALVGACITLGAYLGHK

Bcl-xL = Bcl-xL (Homo sapiens, UniProt Q07817); assay: Binding affinity against Bcl-2 family anti-apoptotic proteins: Bcl-xL
Bcl-xL, sequence (Q07817 whole entry, species assumed): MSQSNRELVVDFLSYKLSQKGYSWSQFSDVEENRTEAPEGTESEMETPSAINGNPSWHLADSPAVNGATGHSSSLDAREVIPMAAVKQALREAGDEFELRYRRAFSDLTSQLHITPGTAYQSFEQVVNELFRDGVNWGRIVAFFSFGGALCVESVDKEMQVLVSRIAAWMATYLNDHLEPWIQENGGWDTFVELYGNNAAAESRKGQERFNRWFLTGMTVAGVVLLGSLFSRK

MV4-11 = assay: Cellular activity against leukemia human tumor cell lines: MV4-11; type: cell-based; details: AML-derived cell line
Procedure: (§1) Acute myeloid leukemia (AML) frequently relapses after initial treatment. Drug resistance in AML has been attributed to high levels of the anti-apoptotic Bcl-2 family proteins. Indeed, Mcl-1 is essential for development and survival of acute myelogenous leukemia cells. Therefore the cellular activity of Mcl-1 inhibitors against AML human cancer cell lines was tested. Blockade of Mcl-1 by these inhibitors (see Table 3) killed AML-derived cell lines, HL-60 and MV4-11, but had less impact on the human CML-derived (K562) cell line.

HL-60 = assay: Cellular activity against leukemia human tumor cell lines: HL-60; type: cell-based; details: AML-derived cell line
Procedure: as §1

Mcl-1 [3] = biological target: T1, Mcl-1; assay: Binding affinity against Bcl-2 family anti-apoptotic proteins: Mcl-1
K562 = assay: Cellular activity against leukemia human tumor cell lines: K562; type: cell-based; details: human CML-derived cell line
Procedure: as §1

MEF DKO cells = assay: Cell death in Bax/Bak deficient (DKO) MEF cells; type: cell-based, mouse
Procedure: (§2) It is known that apoptotic effectors Bak and Bax can be suppressed by multidomain anti-apoptotic proteins such as Mcl-1. To interrogate the mechanism of action, the activity of several novel Mcl-1 inhibitors were evaluated in mouse embryonic fibroblast (MEF) cells that included wild-type (WT) as well as cells deficient in Bax/Bak (DKO).

MEF WT cells = assay: Cell death in wild-type MEF cells; type: cell-based, mouse
Procedure: as §2

HL-60 cell line = assay: Induction of apoptosis in HL-60, flow cytometry with Annexin V and propidium iodide double staining; caspase-3 activation; type: cell-based, human
Source text: To gain insights into the underlying mechanism of action for the cell growth inhibition of this class Mcl-1 inhibitors, the HL-60 cell line was selected and investigated if apoptosis contributes to the antiproliferative effect. Induction of apoptosis was monitored by flow cytometry using Annexin V and propidium iodide double staining.

Mcl-1 [4] = biological target: T1, Mcl-1; details: cited from earlier work

T1 sequence (Q07820 whole entry, species assumed): as the sequence (Q07820 whole entry) above

`CCOC(=O)c1c(C)oc2c1c(C(c1cccc(F)c1)N1CCN(C)CC1)c(O)c1ccccc12` (stereo not drawn) [UMI-1003] showed a pIC50 (Mcl-1 [1]) of 6.70.

For `CCOC(=O)c1c(C)oc2c1c(C(c1ccncc1)N1CCOCC1)c(O)c1ccccc12` (stereo not drawn) [UMI-1007], the pKi (A1) was less than 4.60, the “disruption of the interactions between BL-Noxa and cellular Mcl-1” value [2] was “effectively disrupted the interactions between BL-Noxa and cellular Mcl-1” and the pKi (Bcl-w) was less than 4.52. The pKi (Bcl-2) was less than 4.52, the pKi (Bcl-xL) was less than 4.52 and the pEC50 (MV4-11) was 4.89. The pEC50 (HL-60) was 4.80 and the pKi (Mcl-1 [3]) was 7.70.

For `CCOC(=O)c1c(C)oc2c1c(C(c1ccc(F)cc1)N1CCN(C)CC1)c(O)c1ccccc12` (stereo not drawn) [UMI-118], the pIC50 (Mcl-1 [1]) was 6.72 and the “fold decrease of binding affinity to Mcl-1” value (Mcl-1 [1]) was 3 fold.

In the case of `COC(=O)c1c(C)oc2c1c(C(c1ccncc1)N1CCN(C)CC1)c(O)c1ccccc12` (stereo not drawn) [UMI-1035], the pKi (A1) was less than 4.60, the pEC50 (K562; K562) was 4.61 and the “cell death in MEF DKO” value (MEF DKO cells) was “not in MEF DKO cells”. For the same molecule, the pKi (Bcl-w) was 4.55, the pKi (Bcl-2) was 4.86 and the “cell death in MEF WT” value (MEF WT cells) was “induced cell death”. The pKi (Bcl-xL) was less than 4.52, the pEC50 (MV4-11; Homo sapiens, MV4-11) was 5.21 and the pEC50 (HL-60; Homo sapiens, HL-60) was 4.91. The pKi (Mcl-1 [3]) was 7.82.

In the case of `CCOC(=O)c1c(C)oc2c1c(C(c1ccncc1)N1CCN(CC)CC1)c(O)c1ccccc12` (stereo not drawn) [UMI-1008], the “binding / inhibition of Mcl-1 compared with UMI-1033, in words” value (Mcl-1 [1]) was “kept same”.

With `COC(=O)c1c(C)oc2c1c(C(c1ccncc1)N1CCOCC1)c(O)c1ccccc12` (stereo not drawn) [UMI-1036] the pEC50 (K562) was less than 4.52, the “cell death in MEF DKO” value (MEF DKO cells) was “not in MEF DKO cells” and the “cell death in MEF WT” value (MEF WT cells) was “induced cell death”. For the same molecule, the pEC50 (MV4-11) was 5.09 and the pEC50 (HL-60) was 4.79.

For `CCOC(=O)c1c(C)oc2c1c(C(c1ccncc1)N1CCN(C)CC1)c(O)c1ccccc12` (stereo not drawn) [UMI-1033], the pKi (A1) was less than 4.60, the pEC50 (K562) was less than 4.52 and the pKi (Bcl-w) was less than 4.52. The pKi (Bcl-2) was 4.78, the pKi (Bcl-xL) was less than 4.52 and the pEC50 (MV4-11) was 5.15. It also gave a pEC50 (HL-60) of 4.95 and a pKi (Mcl-1 [3]) of 7.70.

`CCOC(=O)c1c(C)oc2c1c(C(c1ccnc(Cl)c1)N1CCOCC1)c(O)c1ccccc12` (stereo not drawn) [UMI-1026] showed a pKi (A1) of less than 4.60, a pKi (Bcl-w) of less than 4.52 and a pKi (Bcl-2) of less than 4.52. It also gave a pKi (Bcl-xL) of less than 4.52 and a pKi (Mcl-1 [3]) of 7.52.

With `CCOC(=O)CN1CCN(C(c2ccncc2)c2c(O)c3ccccc3c3oc(C)c(C(=O)OCC)c23)CC1` (stereo not drawn) [UMI-1042] the pEC50 (K562) was less than 4.52, the “cell death in MEF DKO” value (MEF DKO cells) was “not in MEF DKO cells” and the “cell death in MEF WT” value (MEF WT cells) was “induced cell death”. For the same molecule, the pEC50 (MV4-11) was 5.00 and the pEC50 (HL-60) was 4.83.

Work on `CCOC(=O)c1c(C)oc2c1c(C(c1ccncc1)N1CCN(C(C)C)CC1)c(O)c1ccccc12` (stereo not drawn) [UMI-1009] yielded a pKi (A1) of less than 4.60, a pEC50 (K562) of less than 4.52 and a pKi (Bcl-w) of less than 4.52. The pKi (Bcl-2) was less than 4.52, the “binding / inhibition of Mcl-1 compared with UMI-1033, in words” value (Mcl-1 [1]) was “kept same” and the pKi (Bcl-xL) was less than 4.52. For the same molecule, the pEC50 (MV4-11) was 5.15, the pEC50 (HL-60) was 5.40 and the pKi (Mcl-1 [3]) was 7.82. The caspase-3 activation (HL-60 cell line; HL-60) was “activation of caspase-3”, the induction of apoptosis (HL-60 cell line; HL-60, 5 μM) was 37% and the induction of apoptosis (HL-60 cell line; HL-60, 10 μM) was 57%.

With `CCOC(=O)c1c(C)oc2c1c(C(c1ccncc1)N1CCc3ccccc3C1)c(O)c1ccccc12` (stereo not drawn) [UMI-1011] the pIC50 (Mcl-1 [1]) was 6.72 and the “fold decrease of binding affinity to Mcl-1” value (Mcl-1 [1]) was 3 fold.

In the case of `CN(C)CC[C@H](CSc1ccccc1)Nc1ccc(S(=O)(=O)NC(=O)c2ccc(N3CCN(Cc4ccccc4-c4ccc(Cl)cc4)CC3)cc2)cc1[N+](=O)[O-]` [ABT-737], the “binding to Mcl-1” value (Mcl-1 [4]) is given as “fails to bind”.

Source: patent US9914723B2, “Small molecule inhibitors of Mcl-1 and uses thereof” (THE REGENTS OF THE UNIVERSITY OF MICHIGAN, priority 2012, dated 2018)
